From patent US4402975A, “Aminocarboxylic acids, amino alcohols, or the derivatives thereof, processes for production thereof, and pharmaceutical uses thereof” (Teijin Limited, priority 1980, dated 1983) come the findings set out here.

Where a name gives a salt, the structure may show the parent alone. Some results are limits rather than exact numbers.

One assay relates to thrombin. As to the kind of experiment: Antithrombin activity (recalcification time of plasma). To be noted: rabbit plasma.
The subject of the next assay is gastric secretion. The experiment in a line: Inhibitory activity on gastric secretion (pylorus ligation). Type of assay: in vivo, male rats. To be noted: for Amount of gastric juice: 4 hours after pylorus ligation, control 6.8 ± 0.6, in ml (unit assumed); for Acidity: control 109.1 ± 1.7. How it is done:
Seven week-old DS-strain male rats (body weight 200 to 220 g) were fasted for 24 hours but water was provided freely, and then used in the following experiment.
The rats were anesthetized with ether. The abdomen was cut open along the median line to expose the pylorus. Then, the pylorus was ligated. After ligation, each of the test compounds dissolved in physiological saline was intraperitoneally administered to the animals. The abdomen was sutured, and after confirming that the animals recovered from ether anesthesia, they were kept in a wire cage while being deprived of food and water. Four hours later, the animals were killed by using ether. The abdomen was again cut open, and the stomach was removed. The gastric juice was collected, and its volume and acidity was measured. The acidity of the gastric juice was determined by titrating with 0.05 N sodium hydroxide using phenolphthalein as an indicator, and calculating the amount of sodium hydroxide required to neutralize the gastric juice which is estimated as the acidity of the gastric juice.
The control group was given physiological saline alone.
For the method of studying the inhibitory activity on the gastiic secretion, reference may be made to H. Shay, S. A. Komoroe, S. S. Fels, M. Meraze, M. Gruestein and H. Siplet: Gastroent., 5, 43 (1945), and M. L. Anson: J. Gen, Physiol., 21, 79 (1938).

A further assay deals with T1, plasmin (Homo sapiens, UniProt P00747).
T1 construct: fibrin clot lysis, native
As to the kind of experiment: Antiplasmin activity (clot lysis time, fibrinogen/urokinase/thrombin). Type of assay: biochemical. How it is done: Human fibrinogen was dissolved in a phosphate-buffered physiological saline (PBS) at a pH of 7.4 to prepare a 0.2% solution. Urokinase and thrombin were dissolved similarly in PBS to prepare a solution containing 120 units of urokinase and 50 units of thrombin per ml. […] Then, 0.1 ml of the urokinase-thrombin mixed solution was added, and a microchronometer was started. One minute after the starting of the microchronometer, a glass ball having a diameter of 8 mm was put on the coagulated surface, and the incubation was continued. The time which elapsed from the dissolution of the coagulated mass until the glass ball dropped onto the bottom of the test tube was measured. As a control, PBS alone was added.

The next assay relates to serotonin ulcer. The experiment in a line: Inhibitory activity on serotonin ulcer. It counts as in vivo, SD-strain male rats. To be noted: 30 min before serotonin 20 mg/kg s.c., rats. How it is done: Seven week-old SD-strain male rats (body weight 200 to 220 g) were fasted for 24 hours but water was provided freely, and then used in the following experiment. Each of the test compounds suspended in 0.5% CMC was administered to the rats either orally or intraperitoneally, and 30 minutes later, serotonin (serotonin creatinine sulfate) was subcutaneously administered to the rats in a dose of 20 mg/kg. Four hours later, the animals were sacrificed. The abdomen was cut open, and the stomach was taken out from each animal. 12 ml of 1% formalin was injected into the stomach to inflate it, and the stomach was further dipped for about 10 minutes in 1% formalin for fixation. Then, the stomach was cut open on the side of the lesser curvature, and spread on a glass plate. The area of ulcers generated in the glandular stomach was measured by using a solid microscope. The sum of the area of ulcer for each animal was used as the ulcer index. The ulcer inhibiting ratio of the test compound was calculated in accordance with the following equation. [formula] The control group was given 0.5% CMC and serotonin alone.

A further assay has as its system indomethacin ulcer. As to the kind of experiment: Inhibitory activity on indomethacin ulcer. It counts as in vivo, SD-strain male rats. To be noted: 400 mg/kg oral, 30 min before indomethacin 20 mg/kg oral, rats. Here is the method:
Seven week-old SD-strain male rats (body weight 200 to 220 g) were fasted for 24 hours but water was provided freely, and then used in the following experiment.
Each of the test compounds suspended in 0.5% CMC was orally administered to the rats, and 30 minutes later, indomethacin was orally administered in a dose of 20 mg/kg. Six hours later, the animals were sacrificed. The abdomen was cut open, and the stomach was removed. 1% Evan's blue was injected in an amount of 0.5 ml/rat into the rats through the tail vein under ether anesthesia 10 minutes before sacrificing.
12 ml of a 1% formalin was injected into the stomach and the stomach was further dipped in 1% formalin for about 10 minutes for the fixation. The stomach was cut open on the side of the greater curvature, and spread on a glass plate. The lengths of ulcers generated in the glandular stomach were measured by using a solid microscope. The sum of the lengths of the ulcers for each animal was used as the ulcer index. The ulcer inhibiting ratio of the test compound was calculated in accordance with the following equation. [formula]
The control group was given 0.5% CMC and indomethacin alone.

Setting [1] is: 10^-3 M, second series, control 556.7 ± 12.6.
[2] abbreviates: 10^-4 M, second series, control 556.7 ± 12.6.
[3] abbreviates: 5 × 10^-3 M, second series, control 103.3 ± 7.6.
[4] abbreviates: 10^-3 M, first series, control 391.7 ± 16.1.
[5] abbreviates: 10^-4 M, first series, control 391.7 ± 16.1.
The mark [6] stands for this setting: 5 × 10^-4 M, second series, control 103.3 ± 7.6.

T1 sequence (P00747 97-810): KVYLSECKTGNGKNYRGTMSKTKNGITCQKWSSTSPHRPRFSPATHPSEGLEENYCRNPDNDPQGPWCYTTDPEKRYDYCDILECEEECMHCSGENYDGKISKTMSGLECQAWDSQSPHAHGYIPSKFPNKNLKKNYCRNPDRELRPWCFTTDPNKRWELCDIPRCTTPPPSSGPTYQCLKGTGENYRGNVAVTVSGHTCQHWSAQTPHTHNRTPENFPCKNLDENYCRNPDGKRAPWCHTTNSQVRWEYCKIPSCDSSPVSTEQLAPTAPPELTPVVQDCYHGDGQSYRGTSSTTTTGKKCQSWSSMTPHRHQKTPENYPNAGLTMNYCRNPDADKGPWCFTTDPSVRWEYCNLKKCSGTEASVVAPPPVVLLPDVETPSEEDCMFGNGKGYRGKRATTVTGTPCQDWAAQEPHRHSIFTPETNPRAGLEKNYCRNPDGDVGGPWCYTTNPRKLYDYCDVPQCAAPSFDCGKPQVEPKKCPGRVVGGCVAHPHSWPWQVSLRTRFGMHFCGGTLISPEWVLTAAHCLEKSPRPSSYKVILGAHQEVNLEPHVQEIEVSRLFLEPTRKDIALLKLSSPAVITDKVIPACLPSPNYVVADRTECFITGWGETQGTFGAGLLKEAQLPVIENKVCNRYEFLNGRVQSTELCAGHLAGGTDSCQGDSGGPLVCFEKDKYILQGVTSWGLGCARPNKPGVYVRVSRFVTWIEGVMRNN

For `NCC1CCC(C(=O)Oc2ccc(CCC(=O)O)cc2)CC1` (stereo not shown) [drawing 60, reference compound], the Recalcification time in the assay on thrombin (5 × 10^-5 M, second series, control 103.3 ± 7.6) was found to be 144.0 ± 2.6 s; in the assay with thrombin (5 × 10^-6 M, second series, control 103.3 ± 7.6), 114.7 ± 2.5 s.

As to `NCC1CCC(C(=O)Oc2ccc(CCC(=O)O)cc2)CC1` (stereo not shown) [drawing 52, reference compound], in the assay on gastric secretion (200 mg/kg i.p.), the “Inhibition ratio (acidity)” value was found to be 52.5%, the “Inhibition ratio (amount of gastric juice)” value worked out at 72.1%, the “Amount of gastric juice” value was found to be 1.9 ± 0.6 and the Acidity was determined as 51.8 ± 10.0 μeq./ml. Moreover, in the assay on gastric secretion (400 mg/kg i.p.), the “Inhibition ratio (acidity)” value was 70.3%, the “Inhibition ratio (amount of gastric juice)” value was found to be 86.8%, the “Amount of gastric juice” value came to 0.9 ± 0.2 and the Acidity came out at 32.4 ± 2.4 μeq./ml.

`NCC1CCC(C(=O)Oc2ccc(CCC(=O)O)cc2)CC1` (stereo not shown) [drawing 56, reference compound]: the Clot lysis time on plasmin (10^-5 M, second series, control 556.7 ± 12.6) is 1398 ± 53.0 s; on plasmin (10^-6 M, second series, control 556.7 ± 12.6), 600.0 ± 37.7 s.

Regarding `Cl.NCc1ccc(C(=O)c2ccc(CCC(=O)O)cc2)cc1` [(112) hydrochloride, 3-[p-(4-aminomethylbenzoyl)phenyl]propionic acid hydrochloride], the Ulcer inhibiting ratio in the assay on serotonin ulcer (200 mg/kg oral) is 95.6%.

As for `NCC1CCC(C(=O)Oc2ccc(CCC(=O)O)cc2)CC1` (stereo not shown) [drawing 58, reference compound], the Recalcification time in the assay on thrombin (5 × 10^-4 M, first series, […]) came out at 122.7 ± 2.5 s; in the assay on thrombin (5 × 10^-5 M, first series, […]), 115.3 ± 1.2 s.

On to `NCCCCCC(O)c1ccc(CCC(=O)O)cc1` (stereo not shown) [(302), 3-[p-(6-amino-1-hydroxyhex-1-yl)phenyl]-propionic acid], for which, in the assay on serotonin ulcer (100 mg/kg oral), the Ulcer inhibiting ratio was 68.1%. Besides, the Clot lysis time on plasmin (setting [1]) was found to be 736.7 s; at plasmin (setting [2]), 521.7 s. Moreover, in the assay on thrombin (setting [3]), the Recalcification time came out at 82.7 s.

For the compound `NCC1CCC(C(=O)Oc2ccc(CCC(=O)O)cc2)CC1` (stereo not shown) [drawing 47, reference compound], the Ulcer inhibiting ratio with serotonin ulcer (100 mg/kg oral) is 17.5%; in the assay on serotonin ulcer (300 mg/kg oral), 73.8%.

For `Cl.NC[C@H]1CC[C@H](C(O)c2ccc(CCC(=O)O)cc2)CC1` (relative stereo) [trans (307) hydrochloride, 3-[p-(trans-4-aminomethylcyclohexylhydroxymethyl)phenyl]propionic acid hydrochloride], the Ulcer inhibiting ratio with serotonin ulcer (100 mg/kg intraperitoneal) worked out at 68.7%. Besides, the Clot lysis time at plasmin (setting [4]) came to 546.7 s; at plasmin (setting [5]), 411.7 s. Moreover, the Recalcification time in the assay on thrombin (setting [3]) was 80.7 s; with thrombin (setting [6]) it was 104.0 s.

Regarding `NCC1CCC(C(=O)Oc2ccc(CCC(=O)O)cc2)CC1` (stereo not shown) [drawing 54, reference compound], the Clot lysis time on plasmin (setting [4]) was more than 1800 s; at plasmin (setting [5]) it was more than 1800 s; at plasmin (10^-5 M, first series, control 391.7 ± 16.1), 1045.0 ± 13.2 s; at plasmin (10^-6 M, first series, control 391.7 ± 16.1), 441.7 ± 21.8 s.

With `Cl.NCCCCCC(=O)c1ccc(CCC(=O)O)cc1` [(102) hydrochloride, 3-[p-(ε-aminocaproyl)phenyl]propionic acid hydrochloride], in the assay with serotonin ulcer (100 mg/kg intraperitoneal), the Ulcer inhibiting ratio stood at 76.2%. Also, the Clot lysis time is 476.7 s on plasmin (setting [4]) and 423.3 s on plasmin (setting [5]). Further, the Recalcification time in the assay on thrombin (setting [3]) is 67.0 s; in the assay with thrombin (setting [6]), 98.3 s.

With `CCOC(=O)CCc1ccc(C(=O)CCCCCN)cc1` [(121) hydrochloride, ethyl 3-[p-ε-aminocaproyl)phenyl]propionate hydrochloride], the Ulcer inhibiting ratio was found to be 72.3% with serotonin ulcer (100 mg/kg oral) and 89.7% in the assay on indomethacin ulcer. The “Inhibition ratio (acidity)” value was 48.9% in the assay with gastric secretion (50 mg/kg i.p.), 58.9% with gastric secretion (100 mg/kg i.p.) and 74.4% with gastric secretion (200 mg/kg i.p.). Besides, the results for the “Inhibition ratio (amount of gastric juice)” value in the assay with gastric secretion (50 mg/kg i.p.), in the assay with gastric secretion (100 mg/kg i.p.) and in the assay with gastric secretion (200 mg/kg i.p.) were 77.9%, 94.1% and 94.1%, respectively. The figures for the “Amount of gastric juice” value in the assay with gastric secretion (50 mg/kg i.p.), in the assay on gastric secretion (100 mg/kg i.p.) and in the assay on gastric secretion (200 mg/kg i.p.) were 1.5 ± 0.4, 0.4 ± 0.1 and 0.4 ± 0.1, respectively. Moreover, the Acidity in the assay with gastric secretion (50 mg/kg i.p.) is recorded as 55.7 ± 9.3 μeq./ml; in the assay on gastric secretion (100 mg/kg i.p.), 44.8 ± 5.0 μeq./ml; with gastric secretion (200 mg/kg i.p.), 27.9 ± 4.4 μeq./ml. Moreover, the Clot lysis time at plasmin (setting [1]) turned out to be 670.0 s; at plasmin (setting [2]), 543.3 s. Also, in the assay on thrombin (setting [3]), the Recalcification time turned out to be 96.0 s.
